Measurements: patent US20080220446A1, “Method for Detecting and/or Removing Protein and/or Peptide Comprising a Cross-Beta Structure From an Aqueous Solution Comprising a Protein” (priority 2005, published 2008)

Legend:
[1] = target: T1, LRP cl-IV binding to BSA-AGE (Bos taurus, UniProt P02769); assay: ELISA, interference with LRP cl-IV binding to BSA-AGE; set-up: species or system human; conditions: concentration series, 50 times diluted LRP cl-IV medium
T1 construct: made in house; host or cells: HEK293E/S (LRP cl-IV, culture supernatant)
Procedure: To test whether amyloid-like crossbeta structure binding compounds tPA, Congo red, Thioflavin T and Thioflavin S interfere with LRP cl-IV binding to BSA-AGE, concentration series of the potential inhibitory amyloid binding moieties were tested in the presence of 50 times diluted medium containing LRP cl-IV. The following inhibitors were used: tPA, Congo red, Thioflavin T (ThT) and Thioflavin S (ThS). As a control to tPA, K2P tPA, which lacks the amyloid-like misfolded protein binding finger domain, was included in the analyses. The influence of tPA and K2P tPA was tested in the presence of 10 mM ε-amino caproic acid to avoid binding of the kringle2 domain of tPA and K2P tPA to lysine- and arginine residues. Binding buffer and K2P tPA serve as negative controls in these inhibition studies. The concentration series was measured in triplicate, the values averaged and standard deviations calculated. Background signals obtained with buffer-coated wells were subtracted. Signals obtained with binding of LRP cluster IV to BSA-AGE was set arbitrarily to a reference binding of 100% and signals obtained with the concentration series of misfolded protein binding moieties and K2P tPA were calculated based on this set reference.

platelets = assay: Aggregometric assay with washed platelets; assay type: cell-based, human; conditions: 1 μM
Procedure: The presence of protein(s) and/or peptide(s) with amyloid-like misfolded protein conformation on activated blood platelets was tested with washed platelets in an aggregometric assay. Freshly drawn human aspirin free blood was mixed gently with citrate buffer to avoid coagulation. Blood was spinned for 15 minutes at 150*g at 20° C. and supernatant was collected; platelet rich plasma (PRP). […] After spinning down the platelets upon centrifugation for 15 minutes at 330*g at 20° C., the pellet was resuspended in HEPES-Tyrode buffer pH 6.5. Prostacyclin was added to a final concentration of 10 ng/ml, and the solution was centrifuged for 15 minutes at 330*g at 20° C., with a soft brake. The pellet was resuspended in HEPES-Tyrode buffer pH 7.2 in a way that the final platelet number was adjusted to 200,000/μl. Platelets were kept at 37° C. for at least 30 minutes, before use in the assays, to ensure that they were in the resting state.
For the aggregometric assays, 400 μl platelet solution was added to a glass tube with 100 μl containing the agonist of interest, fibrinogen and CaCl2. Final concentrations of fibrinogen and CaCl2 were 0.5 mg/ml and 3 mM, respectively. A stirring magnet was added and the apparatus (Whole-blood aggregometer, Chrono-log, Havertown, Pa., USA) was blanked. Aggregation was followed in time by measuring the absorbance of the solution, that will decrease in time upon platelet aggregation. As a positive control, 0.5 U/ml thrombin was used, or TRAP. Aggregation was followed for 10 minutes. Influence of 200 μM Thioflavin T, 200 μM Congo red or 1 μM tPA on platelet aggregation was analyzed.

T1 sequence (P02769 25-607): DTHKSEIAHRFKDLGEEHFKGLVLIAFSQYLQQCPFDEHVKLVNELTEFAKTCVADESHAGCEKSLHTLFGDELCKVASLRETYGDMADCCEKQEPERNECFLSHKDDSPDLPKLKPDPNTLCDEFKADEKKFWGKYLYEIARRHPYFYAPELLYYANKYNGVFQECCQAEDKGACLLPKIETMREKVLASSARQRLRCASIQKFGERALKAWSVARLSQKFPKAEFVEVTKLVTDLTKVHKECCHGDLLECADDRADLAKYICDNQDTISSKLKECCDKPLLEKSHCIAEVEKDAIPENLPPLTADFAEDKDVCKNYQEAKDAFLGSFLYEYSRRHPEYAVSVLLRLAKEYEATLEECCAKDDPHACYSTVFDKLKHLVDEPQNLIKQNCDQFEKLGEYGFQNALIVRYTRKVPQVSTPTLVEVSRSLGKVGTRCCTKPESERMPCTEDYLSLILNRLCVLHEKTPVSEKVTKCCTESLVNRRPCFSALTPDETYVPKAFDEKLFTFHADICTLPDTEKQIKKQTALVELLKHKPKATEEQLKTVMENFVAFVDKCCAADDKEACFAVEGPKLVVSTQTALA

Thioflavin S [ThS]
influence on binding of LRP cl-IV to BSA-AGE [1]: inhibit binding of LRP cl-IV to BSA-AGE to a large extent

tPA: tissue-type plasminogen activator
inhibition of thrombin-induced aggregation (platelets): 55%
